Assay results from ChEMBL document CHEMBL1201862, “PubChem BioAssay data set” (2004).
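Cultured in 96-well plates, cells were exposed to test compound for 48 hours across five concentrations. At the GI50, growth is halved.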 Active and inactive are the calls of the source. No stated cut-off is given here; in the data, active = GI50 up to about 1.1 µM and inactive = higher. *1 amine or outer side, *2 acyl side, *3 side chain or, on linkers, in order; H or OH if unused. Where a SMILES comes first, the peptide text is derived from it. Bridges are numbered along the chain shown (N, C = ends). Roman numbers before positions name the chains, in order. [ ]: non-standard residue; d: D form. Actinocin(9to1) = Cc1c2oc3c(C)ccc(C(=O)[*:1])c3nc-2c(C(=O)[*:2])c(N)c1=O; NMeV = CN[CH](C(=O)O)C(C)C; Sar = CNCC(=O)O

Legend:
Assay in all cases: NCI-60 cell line screen, 48 h
RXF 393 = tested on: RXF 393
OVCAR-3 = tested on: OVCAR-3
U-251 = tested on: U-251
A549 = tested on: A549
SF-268 = tested on: SF-268
OVCAR-5 = tested on: OVCAR-5
K562 = tested on: K562
SNB-19 = tested on: SNB-19
A498 = tested on: A498
SW-620 = tested on: SW-620
NCI-H460 = tested on: NCI-H460
UACC-257 = tested on: UACC-257
HCT-116 = tested on: HCT-116
M14 = tested on: M14
HL-60 = tested on: HL-60
UACC-62 = tested on: UACC-62
CAKI-1 = tested on: CAKI-1
SK-MEL-2 = tested on: SK-MEL-2
RPMI-8226 = tested on: RPMI-8226
SK-OV-3 = tested on: SK-OV-3

Compound	GI50 (RXF 393)	GI50 (OVCAR-3)	GI50 (U-251)	GI50 (A549)	GI50 (SF-268)	GI50 (OVCAR-5)	GI50 (K562)	GI50 (SNB-19)	GI50 (A498)	GI50 (SW-620)	GI50 (NCI-H460)	GI50 (UACC-257)	GI50 (HCT-116)	GI50 (M14)	GI50 (HL-60)	GI50 (UACC-62)	GI50 (CAKI-1)	GI50 (SK-MEL-2)	GI50 (RPMI-8226)	GI50 (SK-OV-3)
Cc1c2cc[n+](C)cc2c(C)c2c1[nH]c1ccccc12	1700 nM (inactive)	3060 nM (inactive)	421 nM (active)	249 nM (active)	467 nM (active)	10200 nM (inactive)	3050 nM (inactive)	301 nM (active)	2390 nM (inactive)	973 nM (active)	1890 nM (inactive)	6410 nM (inactive)	3760 nM (inactive)	7450 nM (inactive)	8690 nM (inactive)	5180 nM (inactive)	2690 nM (inactive)	1280 nM (inactive)	8020 nM (inactive)	4880 nM (inactive)
Cc1c2oc3c(C)ccc(C(=O)NC4C(=O)NC(C(C)O)C(=O)N5CCCC5C(=O)N(C)CC(=O)N(C)C(C(C)C)C(=O)OC4C)c3nc-2c(C(=O)NC2C(=O)NC(C(C)O)C(=O)N3CCCC3C(=O)N(C)CC(=O)N(C)C(C(C)C)C(=O)OC2C)c(N)c1=O (stereo not given) (I: TTP[Sar][NMeV] / II: TTP[Sar][NMeV]; ester I:1-I:C, II:1-II:C; linker I:N-II:N via Actinocin(9to1); configuration not given here)	94.6 nM (active)	280 nM (active)	90.4 nM (active)	783 nM (active)	198 nM (active)	1950 nM (inactive)	44.8 nM (active)	147 nM (active)	774 nM (active)	67 nM (active)	81.8 nM (active)	244 nM (active)	45.6 nM (active)	811 nM (active)	437 nM (active)	103 nM (active)	4070 nM (inactive)	133 nM (active)	36.5 nM (active)	2210 nM (inactive)
